Results on 47 compounds are retold here after patent US7101878B1 (Agouron Pharmaceuticals, Inc., priority 1998, dated 2006).

This test addresses T1, human GnRH receptor (Homo sapiens, UniProt P30968).
T1 construct: expressed in transfected cells; host or cells: HEK 293 (hGnRH-R/293, from Dr. Stuart Sealfon)
T1 sequence (P30968 1-328): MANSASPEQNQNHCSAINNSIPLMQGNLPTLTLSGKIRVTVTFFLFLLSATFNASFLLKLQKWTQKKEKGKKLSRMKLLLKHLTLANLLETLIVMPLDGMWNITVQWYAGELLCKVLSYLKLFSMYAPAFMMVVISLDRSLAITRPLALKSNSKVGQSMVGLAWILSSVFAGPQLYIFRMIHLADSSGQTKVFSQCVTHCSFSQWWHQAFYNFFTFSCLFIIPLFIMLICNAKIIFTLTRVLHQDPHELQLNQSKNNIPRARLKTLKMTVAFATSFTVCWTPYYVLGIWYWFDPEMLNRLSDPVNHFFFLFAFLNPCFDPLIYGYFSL
The test can be described thus: Radioligand binding, 125I-GnRH-A displacement, membranes of HEK 293 cells with human GnRH receptor. Here is the method: All compounds were diluted in 1% DMSO (final assay concentration) in binding assay buffer. […] Reactions were terminated by rapid filtration onto 96-well Packard GF/C filters soaked in 0.1% polyethyleneimine. Filters were washed three times with PBS buffer, dried and counted on a Packard Topcount by liquid scintillation counting.
Assay conditions were identical for assessing compound activities at other species. […] IC50 values for control peptides and test compounds were calculated utilizing GraphPad Prism™ software.
Crude compounds were tested using the competitive radioligand binding assay described above.
The reaction mixture was vortexed and incubated for 1 min at room temperature. After one min, the mixture was vortexed and allowed to incubate for an additional minute. 2 ml of 0.5 M acetic acid/1% BSA was added to the reaction tube and the mixture was added to a C18 Sep-Pak cartridge. The cartridge was washed with subsequent washes of 5 ml H2O and 5 ml 0.5M acetic acid and then eluted with 5×1 ml of 60% CH3CN/40% 0.5M acetic acid. The eluate was diluted with 3× volume of HPLC buffer A (0.1% TFA in H2O) and loaded onto a C18 column. The iodinated product was eluted over 20-25 min with a gradient of 25-100% CH3CN containing 0.1% TFA. The radioactive fractions (750 ed/fraction) are collected into clean polypropylene tubes containing 100 μl of 10% BSA. Fractions were assessed for biological activity by radioligand binding.
S%R is the substrate remaining.

Setting [1] is: 1 uM, read-out: % Inhib. @ 1 uM hGnRH.
[2] abbreviates: 1 h, repeat of % Inhib. at 1 uM, read-out: Repeats @ 1 uM hGnRH.

Read-outs that look alike come from different tables or passages of the source.

Turning to `Cc1cc2c(cc1Cc1ccc(C(=O)N3CCN(c4cccc(C(F)(F)F)c4)CC3)o1)C(C)(C)CCC2(C)C`, the inhibition at 1 µM under setting [1] was -25% and the inhibition at 1 µM under setting [2] was determined as 3%.

For `CCOC(=O)N1CCC(NC(=O)c2ccc(Cc3cc4c(cc3C)C(C)(C)CCC4(C)C)o2)CC1`, the inhibition at 1 µM under setting [1] was 15% and the inhibition at 1 µM under setting [2] was determined as 16%.

On to `Cc1cc2c(cc1Cc1ccc(C(=O)NCCc3ccc(O)cc3)o1)C(C)(C)CCC2(C)C`, for which the inhibition at 1 µM reads like this: under setting [1], 19%; under setting [2], 29%.

`Cc1cc2c(cc1Cc1ccc(C(=O)NCCc3cccc(Cl)c3)o1)C(C)(C)CCC2(C)C`: the inhibition at 1 µM by setting is: under setting [1], 15%; under setting [2], 21%.

Regarding `Cc1cc2c(cc1Cc1ccc(C(=O)NCCN(C)C)o1)C(C)(C)CCC2(C)C`, the inhibition at 1 µM reads like this: under setting [1], -4%; under setting [2], -7%.

Regarding `Cc1cc2c(cc1Cc1ccc(C(=O)NCc3ccc(C(F)(F)F)cc3)o1)C(C)(C)CCC2(C)C`, the inhibition at 1 µM under setting [1] was found to be 40% and the inhibition at 1 µM under setting [2] worked out at 41%.

`Cc1cc2c(cc1Cc1ccc(C(=O)N3CCN(c4cccc(Cl)c4)CC3)o1)C(C)(C)CCC2(C)C`: the inhibition at 1 µM reads like this: under setting [1], -22%; under setting [2], 9%.

With `Cc1cc2c(cc1Cc1ccc(C(=O)N3CCN(c4ccc(Cl)c(Cl)c4)CC3)o1)C(C)(C)CCC2(C)C`, the inhibition at 1 µM by setting is: under setting [1], -20%; under setting [2], -7%.

On to `Cc1cc2c(cc1Cc1ccc(C(=O)N3CCN(c4ccc(F)cc4)CC3)o1)C(C)(C)CCC2(C)C`, for which the inhibition at 1 µM runs as follows: under setting [1], -24%; under setting [2], 9%.

In the case of `Cc1cc2c(cc1Cc1ccc(C(=O)N3CCN(c4ccc([N+](=O)[O-])cc4)CC3)o1)C(C)(C)CCC2(C)C`, the inhibition at 1 µM is -18% under setting [1] and 6% under setting [2].

On to `Cc1cc2c(cc1Cc1ccc(C(=O)N3CCN(c4ccccc4F)CC3)o1)C(C)(C)CCC2(C)C`, for which the inhibition at 1 µM is 24% under setting [1] and 3% under setting [2].

As to `Cc1cc2c(cc1Cc1ccc(C(=O)NC3COC(C)(C)O[C@H]3c3ccccc3)o1)C(C)(C)CCC2(C)C` (stereo partly shown), the inhibition at 1 µM is -6% under setting [1] and 0% under setting [2].

Turning to `Cc1cc2c(cc1Cc1ccc(C(=O)NCc3cc(Cl)ccc3Cl)o1)C(C)(C)CCC2(C)C`, the inhibition at 1 µM is, setting by setting: under setting [1], 26%; under setting [2], 34%.

On to `Cc1cc2c(cc1Cc1ccc(C(=O)NCCc3c(Cl)cccc3Cl)o1)C(C)(C)CCC2(C)C`, for which the inhibition at 1 µM reads like this: under setting [1], -40%; under setting [2], 17%.

`Cc1cc2c(cc1Cc1ccc(C(=O)NCc3cccc(C(F)(F)F)c3)o1)C(C)(C)CCC2(C)C`: the inhibition at 1 µM by setting is: under setting [1], -6%; under setting [2], 16%.

Consider `Cc1cc2c(cc1Cc1ccc(C(=O)NCCSc3cc(C(F)(F)F)nc4ccccc34)o1)C(C)(C)CCC2(C)C`, for which the inhibition at 1 µM reads like this: under setting [1], -18%; under setting [2], 5%.

Take `Cc1cc2c(cc1Cc1ccc(C(=O)NCc3c(Cl)cccc3Oc3ccccc3)o1)C(C)(C)CCC2(C)C`: the inhibition at 1 µM reads like this: under setting [1], -10%; under setting [2], -15%.

As to `Cc1cc2c(cc1Cc1ccc(C(=O)NC3c4ccccc4CC3O)o1)C(C)(C)CCC2(C)C` (stereo not shown), the inhibition at 1 µM under setting [1] is -11% and the inhibition at 1 µM under setting [2] was -29%.

With `Cc1cc2c(cc1Cc1ccc(C(=O)N3CCN(c4ccc(C(F)(F)F)cc4[N+](=O)[O-])CC3)o1)C(C)(C)CCC2(C)C`, the inhibition at 1 µM was -20% under setting [1] and -21% under setting [2].

`Cc1cc2c(cc1Cc1ccc(C(=O)N3CCN(c4ncccc4C(F)(F)F)CC3)o1)C(C)(C)CCC2(C)C`: the inhibition at 1 µM under setting [1] is -16% and the inhibition at 1 µM under setting [2] is -29%.

`Cc1cc2c(cc1Cc1ccc(C(=O)N3CCN(c4ccc(C(F)(F)F)cn4)CC3)o1)C(C)(C)CCC2(C)C`: the inhibition at 1 µM is, setting by setting: under setting [1], -4%; under setting [2], -7%.

As to `Cc1cc2c(cc1Cc1ccc(C(=O)N3CCCCC3c3ccccc3)o1)C(C)(C)CCC2(C)C` (stereo not shown), the inhibition at 1 µM is -19% under setting [1] and -22% under setting [2].

On to `Cc1cc2c(cc1Cc1ccc(C(=O)N3CCN(c4ccncc4)CC3)o1)C(C)(C)CCC2(C)C`, for which the inhibition at 1 µM was -4% under setting [1] and 11% under setting [2].

Turning to `Cc1cc2c(cc1Cc1ccc(C(=O)N3CCN(c4cnccn4)CC3)o1)C(C)(C)CCC2(C)C`, the inhibition at 1 µM by setting is: under setting [1], 3%; under setting [2], 7%.

Consider `Cc1cc2c(cc1Cc1ccc(C(=O)N3CCN(c4ccccc4[N+](=O)[O-])CC3)o1)C(C)(C)CCC2(C)C`, for which the inhibition at 1 µM was -15% under setting [1] and -20% under setting [2].

Consider `Cc1cc2c(cc1Cc1ccc(C(=O)N3CCN(c4ccccc4C#N)CC3)o1)C(C)(C)CCC2(C)C`, for which the inhibition at 1 µM is -5% under setting [1] and 62% under setting [2].

For the compound `Cc1cc2c(cc1Cc1ccc(C(=O)NC(C)c3ccc(O)cc3)o1)C(C)(C)CCC2(C)C` (stereo not shown), the inhibition at 1 µM is, setting by setting: under setting [1], -10%; under setting [2], -9%.

Consider `Cc1cc2c(cc1Cc1ccc(C(=O)NCc3ccc(F)c(C(F)(F)F)c3)o1)C(C)(C)CCC2(C)C`, for which the inhibition at 1 µM turned out to be 11% under setting [1] and 16% under setting [2].

For the compound `Cc1cc2c(cc1Cc1ccc(C(=O)N3CCN(c4ccc(O)cc4)CC3)o1)C(C)(C)CCC2(C)C`, the inhibition at 1 µM runs as follows: under setting [1], -12%; under setting [2], -6%.

As to `Cc1cc2c(cc1Cc1ccc(C(=O)NCc3ccc(Cl)c(C(F)(F)F)c3)o1)C(C)(C)CCC2(C)C`, the inhibition at 1 µM under setting [1] was 15% and the inhibition at 1 µM under setting [2] amounted to 19%.

For `CCN(Cc1cc([N+](=O)[O-])ccc1O)C(=O)c1ccc(Cc2cc3c(cc2C)C(C)(C)CCC3(C)C)o1`, the inhibition at 1 µM was -11% under setting [1] and -5% under setting [2].

For the compound `Cc1cc2c(cc1Cc1ccc(C(=O)N3CCN(c4ccc(Cl)cc4)CC3)o1)C(C)(C)CCC2(C)C`, the inhibition at 1 µM is -11% under setting [1] and -17% under setting [2].

As to `Cc1cc2c(cc1Cc1ccc(C(=O)N3CCN(c4ccccc4Cl)CC3)o1)C(C)(C)CCC2(C)C`, the inhibition at 1 µM runs as follows: under setting [1], -1%; under setting [2], -7%.

In the case of `CCN(CCNC(=O)c1ccc(Cc2cc3c(cc2C)C(C)(C)CCC3(C)C)o1)c1cccc(C)c1`, the inhibition at 1 µM was 2% under setting [1] and 21% under setting [2].

For `Cc1cc2c(cc1Cc1ccc(C(=O)N(C)CCc3ccccc3)o1)C(C)(C)CCC2(C)C`, the inhibition at 1 µM was found to be 10% under setting [1] and 9% under setting [2].

Consider `Cc1cc2c(cc1Cc1ccc(C(=O)N(Cc3ccccc3F)C3CCN(Cc4ccccc4)C3)o1)C(C)(C)CCC2(C)C` (stereo not shown), for which the inhibition at 1 µM is, setting by setting: under setting [1], 7%; under setting [2], 9%.

Consider `Cc1cc2c(cc1Cc1ccc(C(=O)NC3Cc4ccccc4C3)o1)C(C)(C)CCC2(C)C`, for which the inhibition at 1 µM came out at 11% under setting [1] and 15% under setting [2].

On to `Cc1cc2c(cc1Cc1ccc(C(=O)N(CCC3CCCN3C)Cc3ccc(Cl)cc3)o1)C(C)(C)CCC2(C)C` (stereo not shown), for which the inhibition at 1 µM was -22% under setting [1] and -4% under setting [2].

Take `Cc1cc2c(cc1Cc1ccc(C(=O)N(CCCO)Cc3ccccc3[N+](=O)[O-])o1)C(C)(C)CCC2(C)C`: the inhibition at 1 µM under setting [1] was -5% and the inhibition at 1 µM under setting [2] was determined as 6%.

Turning to `Cc1cc2c(cc1Cc1ccc(C(=O)NCCc3ccc(Cl)c(Cl)c3)o1)C(C)(C)CCC2(C)C`, the inhibition at 1 µM is -5% under setting [1] and 8% under setting [2].

Consider `CCc1ccc(CCNC(=O)c2ccc(Cc3cc4c(cc3C)C(C)(C)CCC4(C)C)o2)cc1`, for which the inhibition at 1 µM runs as follows: under setting [1], 29%; under setting [2], 32%.

Regarding `Cc1cc2c(cc1Cc1ccc(C(=O)NC(C)c3ccc(F)cc3)o1)C(C)(C)CCC2(C)C` (stereo not shown), the inhibition at 1 µM is 28% under setting [1] and 35% under setting [2].

Turning to `Cc1cc2c(cc1Cc1ccc(C(=O)NC(C)c3ccc(Cl)cc3)o1)C(C)(C)CCC2(C)C` (stereo not shown), the inhibition at 1 µM by setting is: under setting [1], 20%; under setting [2], 28%.

In the case of `COc1ccc(CCN(C)C(=O)c2ccc(Cc3cc4c(cc3C)C(C)(C)CCC4(C)C)o2)cc1OC`, the inhibition at 1 µM reads like this: under setting [1], 13%; under setting [2], 7%.

Take `Cc1cc2c(cc1Cc1ccc(C(=O)NCCSCc3c(Cl)cccc3Cl)o1)C(C)(C)CCC2(C)C`: the inhibition at 1 µM is, setting by setting: under setting [1], 14%; under setting [2], 20%.

Turning to `Cc1cc2c(cc1Cc1ccc(C(=O)N(C)Cc3ccccc3Cl)o1)C(C)(C)CCC2(C)C`, the inhibition at 1 µM is, setting by setting: under setting [1], 14%; under setting [2], 21%.

Consider `Cc1cc2c(cc1Cc1ccc(C(=O)N3CCN(c4ccc(C(F)(F)F)cc4)CC3)o1)C(C)(C)CCC2(C)C`, for which the inhibition at 1 µM is, setting by setting: under setting [1], -12%; under setting [2], 1%.
